Common to all, as to format: cell-based
Data set [1] concerns MB cells. Description: FACS analysis of cell cycle progression. To be noted: vs miR-NC or scramble-siRNA. As for the experimental part:
To gain more insight into the tumor-suppressing and VCR-sensitizing activities of miR-584-5p, it was determined how the miR-584-5p mimic affected cell cycle progression of MB cells. […] Bar graphs show DNA histograms quantified using the FlowJo software. In FIG. 9A, the p-values were determined by two-way ANOVA followed by Tukey's multiple-comparisons test. Error bars represent mean±SEM. […] In FIG. 9B, the p-values were calculated using standard Student t-tests. Error bars represent mean±SEM. […] Next, it was determined whether miR-584-5p's effect on cell cycle progression may be mediated via its target genes eIF4E3/HDAC1. […] Bar graphs show dot plots quantified using the FlowJo software. Next, it was tested whether miR-584-5p-induced cell cycle arrest led to apoptosis of MB cells. […] In FIG. 8C, the bar graphs reflect DNA histograms quantified using the FlowJo software and in FIG. 8D and FIG. 9C, the bar graphs show dot plots quantified using the FlowJo software. The p-values for panels 8A-D and FIG. 9C were determined by two-way ANOVA followed by Tukey's multiple-comparisons test. Error bars represent mean±SEM. ****, p<0.0001; ***, p<0.001; **, p<0.01; *, p<0.05.
Flow cytometry analysis of cell cycle and apoptosis. […] Cells were analyzed using either FACScantoII or LSRII cytometers, and data were quantified using FlowJo 10.2 software.
For orientation: In flow cytometry, cells or beads pass a laser one at a time.

The subject of data set [2] is MB cells. Description: 53BP1 nuclear foci immunofluorescence (DNA strand breaks). To be noted: vs scrambled-transfected MB cells. As for the experimental part:
FIG. 13C-D show representative immunofluorescence images showing 53BP1 foci in D556Med cells transfected with miR-NC or miR-584-5p mimic (C) or scramble-siRNA or eIF4E3/HDAC1-siRNAs (D) and treated with or without 10 Gy of IR.
Bar graphs next to images show average number of 53BP1 foci/cell. The p-values were determined by two-way ANOVA followed by Sidak's multiple-comparisons test. Error bars represent mean±SEM. Because miR-584-5p induces apoptosis, it was reasoned that DNA strand breaks induced by miR-584-5p and eIF4E3/HDAC1 silencing may not be properly repaired. To confirm those findings, a functional assay was performed to monitor homologous recombination (HR) because HR-dependent events repair IR-induced double-strand breaks in G2 phase. The ISceI-based DR-GFP reporter assay, which measures the frequency of double-strand break repair by HR (Gunn, A., Bennardo, N., Cheng, A. & Stark, J. M. Journal of Biological Chemistry 286, 42470-42482, (2011); Pierce, A. J., Johnson, R. D., Thompson, L. H. & Jasin, M. Genes & Development 13, 2633-2638, (1999); and Stark, J. M., Pierce, A. J., Oh, J., Pastink, A. & Jasin, M. Molecular and Cellular Biology 24, 9305-9316, (2004)), was used. […] The p-values were calculated using either Student t-tests (mimic) or one-way ANOVA followed by Dunnett's multiple-comparisons test (siRNAs). […]

Data set [3] concerns D425Med and D458Med cells. Description: Gene expression profiling (Illumina HT-12 v4 BeadChip). As for the experimental part:
Data are z-transformed. The cutoff criteria for each gene are fold change >2, sample intensity >10, and p-value <0.05. […] To validate the gene expression analysis and target prediction results, it was determined whether miR-584-5p reduced HDAC1/eIF4E3 expression by binding to their 3′-untranslated regions (3′-UTRs). […] Also shown are the portion of the miR-584-5p sequence (SEQ ID NO: 15; UAUGGUU) that binds to the wild-type 3′UTR and seed sequence mutant (SEQ ID NO: 16; […], top panel; and SEQ ID NO: 17; […]; bottom panel). Also shown is miR-584-5p seed sequence mutated sequences. […] Values were normalized to firefly luciferase, which served as an internal control. The p-values were calculated using standard Student t-tests. Error bars represent mean±SEM. […] The p-values were calculated using standard Student t-tests.

As for “miR-584-5p: microRNA mimic; nucleotide sequence UUAUGGUUUGCCUGGGACUGAG (SEQ ID NO: 1); purchased from Thermofisher (chemistry not given here)”, the cell cycle progression result in data set [1] is recorded as “G2/M cell cycle arrest”. Further, the 53BP1 foci entry in data set [2] was “significantly more 53BP1 foci”. The TUBB4 expression entry in data set [3] (confirmed by real-time PCR) was “among the highly downregulated genes”. In addition, the FOXO1 levels result in data set [3] (miR-584-5p-treated MB cells) is “did not change”.

The values above are taken from US20210071180A1, “MICRORNA 584-5P COMPOSITIONS AND METHODS FOR TREATING CANCER” (BOARD OF REGENTS, THE UNIVERSY OF TEXAS SYSTEM, priority 2018, published 2021).
